Reference: patent EP0431323A1, “Antitumor antibiotic BU-3983T” (priority 1989, dated 1991)
Like-named read-outs stand apart in the source and are kept apart here.

Tests used:
[1] = test system: B16-F10 (murine melanoma)
Method: (§1) BU-3983T was tested for in vitro cytotoxicity against murine and human cell lines and for in vivo antitumor activity in mice. B16-F10 (murine melanoma) and Moser (human colorectal carcinoma) cells were grown to the logarithmic phase in the enriched Eagle minimum essential medium supplemented with fetal calf serum (FCS, 10%) and kanamycin (60 µg/ml), and HCT-116 (human colon carcinoma) were in McCoy's 5A medium supplemented with FCS (10%), penicillin (100 U/ml) and streptomycin (100 µg/ml). B16-F10, Moser and HCT-116 cells were harvested and implanted into wells of a 96-well microtiter plate at the inoculum sizes of 1.5 x 10⁴, 3 x 10⁴ and 3 x 10⁴ cells/ml, respectively. They were incubated with test materials at 37°C in humidified atmosphere of 5% CO₂ and 95% air for 72 hours. The cytotoxicity against tumor cells was determined colorimetrically at 540 nm after staining viable cells.

[2] = test system: HCT-116 (human colon carcinoma); settings: HCT-116 cells, 72 hours
Method: as §1

[3] = test system: Moser (human colorectal carcinoma); settings: Moser cells, 72 hours
Method: as §1

[4] = test system: DNA synthesis in B16-F10 melanoma cells; assay: Inhibition of macromolecule synthesis: DNA (3H-thymidine incorporation); assay type: cell-based, murine; settings: 4.5 hours + 30 minutes label
Method: (§3) B16-F10 cells (10⁵ cells/ml) were incubated with test materials at 37°C for 4.5 hours (for DNA synthesis) or 4 hours (for RNA and protein syntheses). Labelled precursor, ³H-thymidine, ¹⁴C-uridine or ³H-leucine was added to the culture and further incubated for 30 minutes (for DNA) or 60 minutes (for RNA and protein). After washing with chilled 5% trichloroacetic acid solution, the radioactivity incorporated into the acid-insoluble fraction of the tumor cells was determined by a liquid scintillation counter. Actinomycin D was used as a reference compound.

[5] = test system: RNA synthesis in B16-F10 melanoma cells; assay: Inhibition of macromolecule synthesis: RNA (14C-uridine incorporation); assay type: cell-based, murine; settings: 4 hours + 60 minutes label
Method: as §3

[6] = test system: Protein synthesis in B16-F10 melanoma cells; assay: Inhibition of macromolecule synthesis: protein (3H-leucine incorporation); assay type: cell-based, murine
Method: as §3

B16 melanoma = assay: In vivo antitumor activity in tumor-bearing mice, B16 melanoma (ip); settings: for Body weight change on day 5 / MST (Median survival time) / T/C: B16 melanoma ip, BDF₁ mice; for T/C: significant if T/C ≧ 125%
Method: (§2) In vivo antitumor activity of BU-3983T was examined using tumor-bearing mice. Male BDF₁ mice were intraperitoneally inoculated with 0.5 ml of 10% melanotic melanoma B16 brei, and female CDF₁ mice were intraperitoneally inoculated with 0.4 ml of diluted ascitic fluid containing 10⁶ lymphocytic leukemia P388 cells or 10⁵ lymphoid leukemia L1210 cells. Mitomycin C was used as a reference compound. Test compounds were intraperitoneally administered to the mice by the following treatment schedules: once a day on day 1 only (Q1D x 1), on days 1, 5 and 9 (Q4D x 3) or on days 1 to 9 (Q1D x 9). […]

P388 leukemia = assay: In vivo antitumor activity in tumor-bearing mice, P388 leukemia (ip); settings: for Body weight change on day 4 / MST (Median survival time) / T/C: P388 leukemia ip, CDF₁ mice, Q1D x 1; for T/C: significant if T/C ≧ 125%
Method: as §2

L1210 leukemia = assay: In vivo antitumor activity in tumor-bearing mice, L1210 leukemia (ip); settings: for Body weight change on day 4 / MST (Median survival time) / T/C: L1210 leukemia ip, CDF₁ mice, Q1D x 1; for T/C: significant if T/C ≧ 125%
Method: as §2

[7] = Antimicrobial activity (no method given)

CCC(C)CC(C)CC(C)/C=C(\C)C1OC(O)(C(C)(O)C(=O)NC2C(=O)N3NCCCC3C(=O)N(O)CC(=O)N(C)CC(=O)NCC(=O)N(C)CC(=O)OC2C(C)C)CCC1OC (centres unmarked) [BU-3983T]
IC₅₀ ([1]; B16-F10 cells, 72 hours): 0.004 µg/mL | times more potent against B16-F10 than against HCT-116 ([1]; ratio of IC₅₀ values, B16-F10 vs HCT-116): 10 times | times more potent against B16-F10 than against Moser ([1]; ratio of IC₅₀ values, B16-F10 vs Moser): 100 times | IC₅₀ [2]: 0.04 µg/mL | IC₅₀ [3]: 0.4 µg/mL | IC₅₀ DNA [4]: 0.26 µg/mL | IC₅₀ RNA [5]: 0.29 µg/mL | IC₅₀ Protein ([6]; 4 hours + 60 minutes label): >1.0 µg/mL | inhibition of protein synthesis ([6]; at 1.0 µg/ml): only weak inhibition | Body weight change on day 5 (B16 melanoma; 0.031 mg/kg/day ip, Q1D x 9): +1.0 g | MST (Median survival time) (B16 melanoma; 0.031 mg/kg/day ip, Q1D x 9): 16.0 days | T/C (B16 melanoma; 0.031 mg/kg/day ip, Q1D x 9): 110% | Body weight change on day 5 (B16 melanoma; 0.063 mg/kg/day ip, Q1D x 9): +1.0 g | MST (Median survival time) (B16 melanoma; 0.063 mg/kg/day ip, Q1D x 9): 17.5 days | T/C (B16 melanoma; 0.063 mg/kg/day ip, Q1D x 9): 121% | Body weight change on day 5 (B16 melanoma; 0.063 mg/kg/day ip, Q4D x 3): +0.5 g | MST (Median survival time) (B16 melanoma; 0.063 mg/kg/day ip, Q4D x 3): 14.0 days | T/C (B16 melanoma; 0.063 mg/kg/day ip, Q4D x 3): 108% | Body weight change on day 5 (B16 melanoma; 0.13 mg/kg/day ip, Q1D x 1): +0.5 g | MST (Median survival time) (B16 melanoma; 0.13 mg/kg/day ip, Q1D x 1): 14.0 days | T/C (B16 melanoma; 0.13 mg/kg/day ip, Q1D x 1): 108% | Body weight change on day 5 (B16 melanoma; 0.13 mg/kg/day ip, Q1D x 9): -0.3 g | MST (Median survival time) (B16 melanoma; 0.13 mg/kg/day ip, Q1D x 9): 19.0 days | T/C (B16 melanoma; 0.13 mg/kg/day ip, Q1D x 9): 131*² % | Body weight change on day 5 (B16 melanoma; 0.13 mg/kg/day ip, Q4D x 3): +0.0 g | MST (Median survival time) (B16 melanoma; 0.13 mg/kg/day ip, Q4D x 3): 15.0 days | T/C (B16 melanoma; 0.13 mg/kg/day ip, Q4D x 3): 115% | Body weight change on day 5 (B16 melanoma; 0.25 mg/kg/day ip, Q1D x 1): 0.0 g | MST (Median survival time) (B16 melanoma; 0.25 mg/kg/day ip, Q1D x 1): 17.0 days | T/C (B16 melanoma; 0.25 mg/kg/day ip, Q1D x 1): 131*² % | Body weight change on day 5 (B16 melanoma; 0.25 mg/kg/day ip, Q1D x 9): -1.0 g | MST (Median survival time) (B16 melanoma; 0.25 mg/kg/day ip, Q1D x 9): 19.5 days | T/C (B16 melanoma; 0.25 mg/kg/day ip, Q1D x 9): 138*² % | Body weight change on day 5 (B16 melanoma; 0.25 mg/kg/day ip, Q4D x 3): 0.0 g | MST (Median survival time) (B16 melanoma; 0.25 mg/kg/day ip, Q4D x 3): 16.0 days | T/C (B16 melanoma; 0.25 mg/kg/day ip, Q4D x 3): 123% | Body weight change on day 5 (B16 melanoma; 0.5 mg/kg/day ip, Q1D x 1): -1.0 g | MST (Median survival time) (B16 melanoma; 0.5 mg/kg/day ip, Q1D x 1): 17.0 days | T/C (B16 melanoma; 0.5 mg/kg/day ip, Q1D x 1): 131*² % | Body weight change on day 5 (B16 melanoma; 0.5 mg/kg/day ip, Q1D x 9): -4.0 g | MST (Median survival time) (B16 melanoma; 0.5 mg/kg/day ip, Q1D x 9): 20.0 days | T/C (B16 melanoma; 0.5 mg/kg/day ip, Q1D x 9): 148*² % | Body weight change on day 5 (B16 melanoma; 0.5 mg/kg/day ip, Q4D x 3): -0.5 g | MST (Median survival time) (B16 melanoma; 0.5 mg/kg/day ip, Q4D x 3): 19.0 days | T/C (B16 melanoma; 0.5 mg/kg/day ip, Q4D x 3): 146*² % | Body weight change on day 5 (B16 melanoma; 1 mg/kg/day ip, Q1D x 1): -4.0 g | MST (Median survival time) (B16 melanoma; 1 mg/kg/day ip, Q1D x 1): 16.5 days | T/C (B16 melanoma; 1 mg/kg/day ip, Q1D x 1): 127*² % | MST (Median survival time) (B16 melanoma; 1 mg/kg/day ip, Q1D x 9): Tox | T/C (B16 melanoma; 1 mg/kg/day ip, Q1D x 9): Tox | Body weight change on day 5 (B16 melanoma; 1 mg/kg/day ip, Q4D x 3): -2.3 g | MST (Median survival time) (B16 melanoma; 1 mg/kg/day ip, Q4D x 3): 17.5 days | T/C (B16 melanoma; 1 mg/kg/day ip, Q4D x 3): 135*² % | Body weight change on day 5 (B16 melanoma; 2 mg/kg/day ip, Q1D x 1): -4.8 g | MST (Median survival time) (B16 melanoma; 2 mg/kg/day ip, Q1D x 1): 21.0 days | T/C (B16 melanoma; 2 mg/kg/day ip, Q1D x 1): 162*² % | Body weight change on day 5 (B16 melanoma; 2 mg/kg/day ip, Q4D x 3): -4.0 g | MST (Median survival time) (B16 melanoma; 2 mg/kg/day ip, Q4D x 3): 18.0 days | T/C (B16 melanoma; 2 mg/kg/day ip, Q4D x 3): 138*² % | Body weight change on day 5 (B16 melanoma; 4 mg/kg/day ip, Q1D x 1): -5.3 g | MST (Median survival time) (B16 melanoma; 4 mg/kg/day ip, Q1D x 1): 19.0 days | T/C (B16 melanoma; 4 mg/kg/day ip, Q1D x 1): 146*² % | Body weight change on day 5 (B16 melanoma; 8 mg/kg/day ip, Q1D x 1): -5.3 g | MST (Median survival time) (B16 melanoma; 8 mg/kg/day ip, Q1D x 1): 17.5 days | T/C (B16 melanoma; 8 mg/kg/day ip, Q1D x 1): 135*² % | maximum T/C (B16 melanoma; B16 melanoma, by various treatment schedules (Q1D x 1, Q4D x 3, Q1D x 9), ip): 146-162% | Body weight change on day 4 (P388 leukemia; 0.25 mg/kg/day ip): +0.3 g | MST (Median survival time) (P388 leukemia; 0.25 mg/kg/day ip): 11.0 days | T/C (P388 leukemia; 0.25 mg/kg/day ip): 110% | Body weight change on day 4 (P388 leukemia; 0.5 mg/kg/day ip): -0.5 g | MST (Median survival time) (P388 leukemia; 0.5 mg/kg/day ip): 10.0 days | T/C (P388 leukemia; 0.5 mg/kg/day ip): 100% | Body weight change on day 4 (P388 leukemia; 1 mg/kg/day ip): -1.5 g | MST (Median survival time) (P388 leukemia; 1 mg/kg/day ip): 10.0 days | T/C (P388 leukemia; 1 mg/kg/day ip): 100% | Body weight change on day 4 (P388 leukemia; 2 mg/kg/day ip): -2.0 g | MST (Median survival time) (P388 leukemia; 2 mg/kg/day ip): 10.0 days | T/C (P388 leukemia; 2 mg/kg/day ip): 100% | Body weight change on day 4 (P388 leukemia; 4 mg/kg/day ip): -2.3 g | MST (Median survival time) (P388 leukemia; 4 mg/kg/day ip): 11.0 days | T/C (P388 leukemia; 4 mg/kg/day ip): 110% | Body weight change on day 4 (P388 leukemia; 8 mg/kg/day ip): -2.5 g | MST (Median survival time) (P388 leukemia; 8 mg/kg/day ip): 11.5 days | T/C (P388 leukemia; 8 mg/kg/day ip): 115% | prolongation of lifespan (P388 leukemia; P388 leukemia system, ip): no significant prolongation of lifespan | Body weight change on day 4 (L1210 leukemia; 0.25 mg/kg/day ip): +0.8 g | MST (Median survival time) (L1210 leukemia; 0.25 mg/kg/day ip): 8.0 days | T/C (L1210 leukemia; 0.25 mg/kg/day ip): 100% | Body weight change on day 4 (L1210 leukemia; 0.5 mg/kg/day ip): -0.5 g | MST (Median survival time) (L1210 leukemia; 0.5 mg/kg/day ip): 8.0 days | T/C (L1210 leukemia; 0.5 mg/kg/day ip): 100% | Body weight change on day 4 (L1210 leukemia; 1 mg/kg/day ip): -2.0 g | MST (Median survival time) (L1210 leukemia; 1 mg/kg/day ip): 8.0 days | T/C (L1210 leukemia; 1 mg/kg/day ip): 100% | Body weight change on day 4 (L1210 leukemia; 2 mg/kg/day ip): -2.0 g | MST (Median survival time) (L1210 leukemia; 2 mg/kg/day ip): 9.0 days | T/C (L1210 leukemia; 2 mg/kg/day ip): 113% | Body weight change on day 4 (L1210 leukemia; 4 mg/kg/day ip): -2.5 g | MST (Median survival time) (L1210 leukemia; 4 mg/kg/day ip): 9.5 days | T/C (L1210 leukemia; 4 mg/kg/day ip): 119% | MST (Median survival time) (L1210 leukemia; 8 mg/kg/day ip): Tox | T/C (L1210 leukemia; 8 mg/kg/day ip): Tox | prolongation of lifespan (L1210 leukemia; L1210 leukemia system, ip): no significant prolongation of lifespan | antimicrobial activity [7]: weak | solubility (in acetonitrile, methanol, chloroform, dimethyl sulfoxide and dimethylformamide): readily soluble | solubility (in n-butanol, ethanol and ethyl acetate): slightly soluble | solubility (in n-hexane and water): practically insoluble
